Laboratory results reported in patent publication US8188129B2, “(−)-enantiomer of the 2-[2-(1-chloro-cyclopropyl)-3-(2-chlorophenyl)-2-hydroxypropyl]-2,4-dihydro-[1,2,4]-triazole-3-thione” (Bayer Aktiengesellschaft, priority 1999, dated 2012).

Key:
Podosphaera leucotricha = assay: Podosphaera test (apple)/protective; format: in vivo; conditions: protective spray, application rate 10 g/ha, evaluation 10 days after inoculation
Venturia inaequalis = assay: Venturia test (apple)/curative; conditions: curative spray, application rate 1 g/ha, evaluation 12 days after inoculation
Protocol: To test for curative activity, young plants are inoculated with an aqueous conidia suspension of the apple scab pathogen Venturia inaequalis. The plants remain in an incubation cabin at approximately 20° C. and 100% relative atmospheric humidity for 1 day and are then placed in a greenhouse.
The plants are then placed in a greenhouse at approximately 21° C. and a relative atmospheric humidity of approximately 90%.
Evaluation is carried out 12 days after the inoculation.

Pyricularia oryzae = format: in vivo; conditions: rice, protective spray, application rate 375 g/ha, evaluation 4 days after inoculation
Cochliobolus sativus = Cochliobolus sativus test (barley)/protective; conditions: protective spray, evaluation 7 days after inoculation
Protocol: After the spray coating has dried on, the plants are sprayed with a conidia suspension of Cochiliobolus sativus. The plants remain in an incubation cabin at 20° C. and 100% relative atmospheric humidity for 48 hours.
The plants are placed in a greenhouse at a temperature of 20° C. and a relative atmospheric humidity of approximately 80%.
Evaluation is carried out 7 days after the inoculation.

Uncinula necator = assay: Uncinula test (vine)/protective; format: in vivo; conditions: protective spray, application rate 10 g/ha, evaluation 14 days after inoculation

OC(Cc1ccccc1Cl)(Cn1nc[nH]c1=S)C1(Cl)CC1 (single isomer, unassigned; (-)) [(I), (−)-enantiomer of 2-[2-(1-chloro-cyclopropyl)-3-(2-chlorophenyl)-2-hydroxypropyl]-2,4-dihydro-[1,2,4]-triazole-3-thione]
Efficacy in % (Podosphaera leucotricha): 78%
Efficacy in % (Venturia inaequalis): 91%
Efficacy in % (Pyricularia oryzae): 90%
Efficacy in % (Cochliobolus sativus; application rate 125 g/ha): 75%
Efficacy in % (Cochliobolus sativus; application rate 250 g/ha): 75%
Efficacy in % (Uncinula necator): 84%

OC(Cc1ccccc1Cl)(Cn1nc[nH]c1=S)C1(Cl)CC1 (racemic) [(Ia), racemic 2-[2-(1-chloro-cyclopropyl)-3-(2-chloro-phenyl)-2-hydroxypropyl]-2,4-dihydro-[1,2,4]-triazole-3-thione]
Efficacy in % (Podosphaera leucotricha): 60%
Efficacy in % (Venturia inaequalis): 79%
Efficacy in % (Pyricularia oryzae): 30%
Efficacy in % (Cochliobolus sativus; application rate 125 g/ha): 59%
Efficacy in % (Cochliobolus sativus; application rate 250 g/ha): 66%
Efficacy in % (Uncinula necator): 47%
